PubChem BioAssay (NCI)
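96-well plates; 48 h exposure; 5 concentrations. Endpoints by linear interpolation between flanking doses. Not reached: highest tested concentration assigned. At the TGI there is no net growth.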

Legend:
Assay in all cases: NCI tumour cell line growth inhibition, 48 h
[1] = system: K-562 leukemia
[2] = system: RXF 393 renal
[3] = system: DU-145 prostate
[4] = system: EKVX NSCLC
[5] = system: NCI-H226 lung
[6] = system: MDA-MB-435
[7] = system: HCT-116 colon
[8] = system: CCRF-CEM leukemia
[9] = system: SK-OV-3 ovarian
[10] = system: A549 NSCLC
[11] = system: NCI-H460 lung

Row | Compound | TGI [1] | TGI [2] | TGI [3] | TGI [4] | TGI [5] | TGI [6] | TGI [7] | TGI [8] | TGI [9] | TGI [10] | TGI [11]
1 | CCOC(=O)c1c[nH]c(C(=O)OCC)c1-c1cccn1-c1ccccc1 | 45.4 µM | 43 µM | > 100 µM | > 100 µM | 98.8 µM | > 100 µM | 30.3 µM | 52.2 µM | 90.6 µM | > 100 µM | 65.5 µM
2 | COc1ccc(-n2c(CCC(=O)O)nc3c2C(=O)c2ccccc2C3=O)cc1 | > 100 µM | > 100 µM | > 100 µM | > 100 µM | > 100 µM | > 100 µM | > 100 µM | > 100 µM | > 100 µM | > 100 µM | > 100 µM
3 | CC1(C)C2CCC3CC(CCC#N)CCC3C21C#N (centres undefined) | > 100 µM | > 100 µM | > 100 µM | > 100 µM | > 100 µM | > 100 µM | > 100 µM | > 100 µM | > 100 µM | > 100 µM | > 100 µM
4 | CC(C)Oc1c(C2(c3ccccc3)SCCCS2)c(=O)c1=O |  | > 100 µM | > 100 µM | > 100 µM | > 100 µM | > 100 µM | > 100 µM | > 100 µM | > 100 µM | > 100 µM | > 100 µM
5 | Cc1ccc(S(=O)c2cccs2)cc1 (centres undefined) | > 100 µM | > 100 µM | > 100 µM | > 100 µM | > 100 µM | > 100 µM | > 100 µM | > 100 µM |  | > 100 µM | > 100 µM
6 | O=C1CCN2c3ccccc3[C@H]3Cc4cccc(c4[C@@H]2C3)CCO1 | 80.7 µM | > 100 µM | > 100 µM | > 100 µM | > 100 µM | > 100 µM | > 100 µM | > 100 µM | > 100 µM | > 100 µM | > 100 µM
7 | CCOC(=O)C(NC(=O)OCc1ccccc1)C(=O)O (centres undefined) | > 100 µM | > 100 µM | > 100 µM | > 100 µM | > 100 µM | > 100 µM | > 100 µM | > 100 µM |  | > 100 µM | > 100 µM
8 | COc1ccc(C2c3cc4c(cc3OC(NNc3ccccc3)C2C)OCO4)cc1 (centres undefined) | > 100 µM | 54.3 µM | > 100 µM | 24.3 µM | > 100 µM | > 100 µM | 43.2 µM | 40.5 µM | > 100 µM | > 100 µM | > 100 µM
9 | C#CC[C@@H]1C(=O)N(Cc2ccc(OC)cc2)[C@@H](C(C)C)C(=O)N1Cc1ccc(OC)cc1 | > 100 µM | 25.6 µM | > 100 µM | 69 µM | > 100 µM | > 100 µM | > 100 µM | 36.2 µM | > 100 µM | > 100 µM | > 100 µM
10 | CSc1nc(=S)[nH]c2c1c(C)nn2-c1ccccc1 | 51.9 µM | 94.1 µM | 40.6 µM | 46.6 µM | 51.2 µM | > 100 µM | 43.2 µM | 49 µM | 90.3 µM | > 100 µM | 58.9 µM
11 | Cc1cccc(C2ON=C(c3ccccc3)N2C23CC4CC(CC(C4)C2)C3)c1 (centres undefined) | > 10 µM | > 10 µM | > 10 µM | > 10 µM | > 10 µM | > 10 µM | > 10 µM | > 10 µM | > 10 µM | > 10 µM | > 10 µM
12 | CN(C)c1ccc(/C=C/C(=O)c2ccc(O)cc2)cc1 | 8.38 µM | > 100 µM | 63.5 µM | > 100 µM | > 100 µM | 3.22 µM | > 68 µM | 17.4 µM | 61.9 µM | > 100 µM | 22.8 µM
13 | C1CNOCCCONCCCNOCCCONC1 | > 100 µM | 64.2 µM | > 100 µM | > 100 µM | > 100 µM | > 100 µM | > 100 µM | > 100 µM | > 100 µM | > 100 µM | 94 µM
14 | C[C@]12C=CC(=O)C=C1CC[C@@H]1[C@@H]2CC[C@@]2(C)[C@H]1CC[C@]2(O)C(N)=O | > 100 µM | > 100 µM | > 100 µM | > 100 µM | > 100 µM | > 100 µM | > 100 µM | > 100 µM | > 100 µM | > 100 µM | > 100 µM
15 | CC(C)/C=C1\CCC(CN(C)C)C1=O (centres undefined) | 7.85 µM | 1.31 µM | 3.21 µM | 15.5 µM | 83 µM | 3.01 µM | 2.5 µM | 5.34 µM | 32.4 µM | 17.2 µM | 40.1 µM
16 | O=C1Oc2ccccc2C1C/C(=N\Nc1ccccc1)c1ccccc1O (centres undefined) |  | > 100 µM | > 100 µM | > 100 µM | > 100 µM | 76.2 µM | > 100 µM | > 100 µM | > 100 µM | > 100 µM | > 100 µM
17 | O=c1[nH]nc(Cc2ccccc2)n1/N=C/c1cccs1 | > 100 µM | > 100 µM | > 100 µM | > 100 µM | > 100 µM | > 100 µM | > 100 µM | > 100 µM | > 100 µM | > 100 µM | > 100 µM
18 | COc1ccc(C(O)/C(=N/N)c2nc3ccc(Cl)cc3[nH]c2=O)cc1 (centres undefined) | > 100 µM | > 100 µM | > 100 µM | > 100 µM | > 100 µM | > 100 µM | > 100 µM | > 100 µM | > 100 µM | > 100 µM | > 100 µM
